Entries after “also recorded” stand apart in the source; their conditions may differ.
Key:
[1] = tested on: human fetal brain-derived neurospheres; test: Human neurosphere differentiation assay; type: cell-based; details: human neurospheres treated with inhibitor, vs control
Procedure: (§1) Mouse ESC (EB3) culture, EB formation, neurosphere formation and differentiation of neurosphere were performed as previously described (Nat. Neurosci. 11, 1014-1023 (2008)). Human NSCs were grown as previously described (J. Neurosci. Res. 69, 869-879 (2002); J. Neurosci. Res. 87, 307-317 (2009)) without […] growth factor (EGF), and allowed to differentiate on a substrate-coated coverslips in the absence of mitogen for 14 days, a procedure similar to that used for mouse neurosphere.
(§2) Immunocytechemistry and immunohistochemistry were performed as previously described (Nat. Neurosci. 11, 1014-1023 (2008)) using antibodies against βIII-tubulin, NeuN (neural marker), glial fibrillary acidic protein (GFAP, astrocyte marker), and haemagglutinin (HA).

p2 neurospheres = test: Mouse ESC-derived neurosphere differentiation assay; type: cell-based; details: for neuronal differentiation (βIII-tubulin-positive neurons) of p2 neurospheres: lentiviral overexpression in NSCs from p0 stage, differentiated at p2, control miR-LacZ
Procedure: as §1, §2

p38 = test: Western blotting of p38 expression in neurospheres; type: cell-based, mouse; details: p2 neurospheres
[2] = tested on: miR-17 binding site in 3′UTR of p38 mRNA; test: DsRed-Express2 reporter assay (Mp38 sensor) in HEK293 cells; type: cell-based, human; details: HEK293 stable transformant, FACS one week after lentivirus, compared to miR-LacZ
Excerpt: FIG. 17 is a graph showing that miR-17 binds to a binding site in the 3′ untranslated region (UTR) of mouse p38 mRNA. […] The miR-17 binding site in 3′UTR of p38 mRNA (to be referred to as “Mp38 sensor”; 2970-2992 of NM_011951) was cloned into a mammal expression vector of the DsRed-Express2 reporter system. After transformation of HEK293 cells, lentiviruses expressing miR-LacZ or miR-17 were introduced into a stable transformant. One week later, the intracellular expression level of DsRed-Express2 was analyzed by FACS. […] (t-test, n (≧3000 cells)=3, **P<0.01). Bars and error bars represent the mean+s.e.m for each condition.

Gfap promoter = test: Bisulfite sequencing of CpG methylation status; type: cell-based, mouse
Excerpt: The methylation frequency of 10 CpG sequences on the Gfap promoter, including the CpG site in the STAT3-binding sequence as indicated by the arrows, was examined. The graphs show the percentages of methylated CpG cytosines in the whole Gfap promoter (left graph) and the STAT3-binding region (right graph) (t test, n (≧10 clones)=3, NS (not significant), P>0.05). Bars and error bars represent the mean+s.e.m for each condition.

developing mouse brain = test: In utero lentiviral microinjection, fate of infected cells in cerebral cortex; type: in vivo; details: lentivirus injected in utero at E10.5, examined at P30
Procedure: Experiments were performed using ICR mice. All aspects of animal care and treatment were carried according to the guidelines of the Experimental Animal Committee of Keio University School of Medicine. In utero microinjection of lentivirus particles into the brain of E10.5 ICR mouse was guided by an in vivo ultrasound real-time scanner (Vevo660; VisualSonics).
as §2

## C[S+]([O-])c1ccc(-c2nc(-c3ccncc3)c(-c3ccc(F)cc3)[nH]2)cc1 (stereo not drawn) [SB203580, reference compound]
[1]
  percentage of neurons differentiated from human neurospheres (neuropotency): restored neuropotency; also recorded: increased the percentage of neurons differentiated from the neurospheres
p2 neurospheres; mouse p2 neurospheres, treatment with inhibitor during growth, vs control
  percentage of neurons differentiated from p2 neurospheres (neuropotency): showed higher neuropotency than controls; also recorded: increased the percentage of neurons differentiated from p2 neurospheres

## miR-17: miRNA targeting p38, SEQ ID NO: 5, overexpressed by lentivirus (guide CAAAGUGCUUACAGUGCAGGUAG; listed as Mus musculus)
p38
  p38 protein expression: suppressed p38 expression at p2 stage
[2]
  DsRed-Express2 reporter expression linked to Mp38 sensor / interaction with p38 mRNA: direct interaction; also recorded: caused a decrease in DsRed-Express2
Gfap promoter; p2 neurosphere stage, overexpression from p0
  CpG methylation of Gfap promoter: no significant changes in the extent of CpG methylation
Gfap promoter; p3 neurospheres
  DNA methylation status of the Gfap promoter: did not change significantly
Developing mouse brain
  infected cells fated to become neurons in the cerebral cortex: 97.6%
p2 neurospheres; LIF (10 ng/ml) and BMP2 (100 ng/ml) during differentiation, p2 stage
  differentiation of p2 neurospheres in presence of gliogenic cytokines: differentiated exclusively into neurons; also recorded: did not undergo gliogenesis
p2 neurospheres; lentiviral infection at onset of p3 stage, within 1 week
  neuropotency of p3 neurospheres: marked recovery of neuropotency; also recorded: restored neuropotency of mouse p3 neurospheres
p2 neurospheres
  neuronal differentiation (βIII-tubulin-positive neurons) of p2 neurospheres: replicated the phenotype induced by the intact miR-17-92 cluster

## miR-106a: miRNA targeting p38, SEQ ID NO: 6, paralog of miR-17 (CAAAGUGCUAACAGUGCAGGUAG; listed as RNA, chemistry not fully specified; listed as Mus musculus)
p2 neurospheres
  neuronal differentiation (βIII-tubulin-positive neurons) of p2 neurospheres: led to a neuronal phenotype

## miR-106b: miRNA targeting p38, SEQ ID NO: 7, paralog of miR-17 (UAAAGUGCUGACAGUGCAGAU; listed as RNA, chemistry not fully specified; listed as Mus musculus)
p2 neurospheres
  neuronal differentiation (βIII-tubulin-positive neurons) of p2 neurospheres: led to a neuronal phenotype; also recorded: stronger than that of miR-106a

Reference: patent publication US20150104870A1, “NEURONAL DIFFERENTIATION PROMOTER” (KEIO UNIVERSITY, priority 2012, published 2015)
